From patent US12030892B2, “CRBN modulators” (DANA-FARBER CANCER INSTITUTE, INC., priority 2018, dated 2024)

Columns and labels:
DDB1ΔB-CRBN = DDB1ΔB-CRBN (Homo sapiens (Human), UniProt Q96SW2); assay: Atto565-Lenalidomide FP displacement assay (CRBN binding); conditions: for CRBN binding (in words), IC50 comparable to lenalidomide: FP displacement assay, FIG. 3A-3D; for IC50: FP displacement of 10 nM Atto565-Lenalidomide, 100 nM DDB1ΔB-CRBN, n=3; for Ki: FP displacement of Atto565-Lenalidomide
Experimental: Compounds in Atto565-Lenalidomide displacement assay were dispensed in a 384-well microplate (Corning, 4514) using D300e Digital Dispenser (HP) normalized to 1% DMSO into 10 nM Atto565-Leanlidomide, 100 nM DDB1ΔB-CRBN, 50 mM Tris pH 7.5, 200 mM NaCl, 0.1% Pluronic® F-68 solution (Sigma). Compound titrations were incubated for 60 min at RT. The change in fluorescence polarization was monitored using a PHERAstar® FS microplate reader (BMG Labtech) for 1 h in 120 s cycles. Data from three independent replicates (n=3) was used to estimate IC50 values using variable slope equation in GraphPad Prism 7.

IKZF1 = IKZF1 (Homo sapiens (Human), UniProt Q13422+Q96SW2, DEL197-238/DEL256-519); assay: Cellular degradation assay, eGFP-IKZF1/mCherry reporter in Flip-In 293 cells; type: cell-based; conditions: 5 h incubation, eGFP/mCherry relative abundance, FIG. 1A-1C
Experimental: Following 2-3 passage cycle FACS (FACSAria™ II, BD) was used to enrich for cells expressing eGFP and mCherry. […] Data was analyzed using FlowJo® (FlowJo®, LCC). […] The eGFP protein abundance relative to mCherry was then quantified as a ten-fold amplified ratio for each individual cell using the formula: 10×eGFP/mCherry. The median of the ratio was then calculated per set, normalized to the median of the DMSO ratio, and is denoted as relative abundance.

MM1.S cells = assay: MM1.S cell proliferation; type: cell-based; conditions: Homo sapiens
BRD2 = assay: Cellular degradation assay, eGFP-BRD2BD1/BRD2BD2 mCherry reporters in Flip-In 293 cells; type: cell-based; conditions: BRD2BD1 and BRD2BD2 reporters, 5 h; compound 2 active via BRD2BD2
Experimental: (§1) IKZF1 (construct IKZF1^Δ1-82/Δ197-238/Δ256-519) BRD2BD1, BRD2BD2, BRD3BD1, BRD3BD2, BRD4BD1, and BRD4BD2 were subcloned into mammalian pcDNA5/FRT Vector (Ampicillin and Hygromycin B resistant) modified to contain MCS-eGFP-P2A-mCherry. Stable cell lines expressing eGFP-protein fusion and mCherry reporter were generated using Flip-In 293 system. Plasmid (0.3 μg) and pOG44 (4.7 μg) DNA were preincubated in 100 μL of Opti-MEM I (Gibco™ Life Technologies™) media containing 0.05 mg/ml Lipofectamine 2000 (Invitrogen™) for 20 min and added to Flip-In 293 cells containing 1.9 ml of DMEM media (Gibco™, Life Technologies™) per well in a 6-well plate format (Falcon®, 353046). […] Titrated compounds were incubated with cells for 5 h following trypsinisation and resuspension in DMEM media, transferred into 96-well plates (353910, Falcon®) and analyzed by flow cytometer (Guava© easyCyte HT, Millipore™) Signal from 5000 cells per well was acquired in singlicate or duplicate and the eGFP and mCherry florescence monitored. Data was analyzed using FlowJo® (FlowJo®, LCC). Forward and side scatter outliers, frequently associated with cell debris, were removed leaving >90% of total cells, followed by removal of eGFP and mCherry signal outliers, leaving 88-90% of total cells creating the set used for quantification. […]

BRD3 = assay: Cellular degradation assay, eGFP-BRD3BD1/BRD3BD2 mCherry reporters in Flip-In 293 cells; type: cell-based; conditions: BRD3BD1 and BRD3BD2 reporters, 5 h; both compounds active via BD1 and BD2
Experimental: as §1

BRD4 = assay: Cellular degradation assay, eGFP-BRD4BD1/BRD4BD2 mCherry reporters in Flip-In 293 cells; type: cell-based; conditions: BRD4BD1 and BRD4BD2 reporters, 5 h; compound 2 via BD1 and BD2, compound 1 via BD1
Experimental: as §1

[1] = test system: bromodomain proteins BRD2, 3 and 4; assay: Change of cellular protein abundance (TMT quantitative proteomics) in Kelly cells; type: cell-based, human; conditions: 1 μM, 6 hours, compared to DMSO control
Experimental: Kelly cells were treated with DMSO control (biological triplicates) or 1 μM of inventive compound 1 or compound 2 for 6 hours (biological singlicate). Lysis buffer (8 M Urea, 50 mM NaCl, 50 mM 4-(2hydroxyethyl)-1-piperazineethanesulfonic acid (EPPS) pH 8.5, Protease and Phosphatase inhibitors from Roche) was added to the cell pellets and homogenized by 20 passes through a 21 gauge (1.25 in. long) needle to achieve a cell lysate with a protein concentration between 1-4 mg mL^−1. A Micro BCA™ assay (Pierce™) was used to determine the final protein concentration in the cell lysate. 200 μg of protein for each sample were reduced and alkylated as previously described.
Proteins were precipitated using methanol/chloroform/water (4:1:3). In brief, four volumes of methanol were added to the cell lysate, followed by one volume of chloroform, and finally three volumes of water. The mixture was vortexed and centrifuged to separate the chloroform phase from the aqueous phase. The precipitated protein was washed with three volumes of methanol, centrifuged and the resulting washed precipitated protein was allowed to air dry. Precipitated protein was resuspended in 4 M Urea, 50 mM 4-(2-hydroxyethyl)-1-piperazineethanesulfonic acid (HEPES) pH 7.4, followed by dilution to 1 M urea with the addition of 200 mM EPPS, pH 8. Proteins were first digested with LysC (1:50; enzyme:protein) for 12 hours at room temperature. The LysC digestion was diluted to 0.5 M Urea with 200 mM EPPS pH 8 followed by digestion with trypsin (1:50; enzyme:protein) for 6 hours at 37° C. Tandem mass tag (TMT) reagents (Thermo Fisher Scientific) were dissolved in anhydrous acetonitrile (ACN) according to manufacturer's instructions. Anhydrous ACN was added to each peptide sample to a final concentration of 30% v/v, and labeling was induced with the addition of TMT reagent to each sample at a ratio of 1:4 peptide:TMT label. The 10-plex labeling reactions were performed for 1.5 hours at room temperature and the reaction quenched by the addition of hydroxylamine to a final concentration of 0.3% for 15 minutes at room temperature. The sample channels were combined at a 1:1:1:1:1:1:1:1:1:1 ratio, desalted using C18 solid phase extraction cartridges (Waters) and analyzed by LC-MS for channel ratio comparison. Samples were then combined using the adjusted volumes determined in the channel ratio analysis and dried down in a speed vacuum. The combined sample was then resuspended in 1% formic acid, and acidified (pH 2-3) before being subjected to desalting with C18 SPE (Sep-Pak®, Waters). […]

Chain of DDB1ΔB-CRBN (Q96SW2 whole entry, stated change not applied): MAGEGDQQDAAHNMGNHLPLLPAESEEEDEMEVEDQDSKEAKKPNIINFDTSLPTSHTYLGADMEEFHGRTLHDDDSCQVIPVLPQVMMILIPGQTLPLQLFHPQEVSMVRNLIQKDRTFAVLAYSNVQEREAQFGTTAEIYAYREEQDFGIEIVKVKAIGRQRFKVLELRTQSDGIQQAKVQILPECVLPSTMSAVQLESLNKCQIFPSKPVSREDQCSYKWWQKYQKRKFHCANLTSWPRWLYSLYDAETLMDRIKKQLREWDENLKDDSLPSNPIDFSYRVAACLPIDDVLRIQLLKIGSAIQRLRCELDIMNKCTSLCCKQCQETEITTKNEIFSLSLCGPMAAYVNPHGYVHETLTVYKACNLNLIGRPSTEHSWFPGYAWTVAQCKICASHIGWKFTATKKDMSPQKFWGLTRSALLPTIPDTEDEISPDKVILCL

SMILES | CRBN binding (in words), IC50 comparable to lenalidomide (DDB1ΔB-CRBN) | IC50 (DDB1ΔB-CRBN) | Ki (DDB1ΔB-CRBN) | activity against the target IKZF1 (degradation, in words) (IKZF1) | IC50 (MM1.S cells) | degradation activity against BRD2 (in words) (BRD2) | degradation activity against BRD3 (in words) (BRD3) | degradation activity against BRD4 (in words) (BRD4) | change in relative abundance of endogenous bromodomain proteins (in words) [1] | degradation of common IMiD-dependent off-targets (in words) [1]
Nc1cc2c3c(cccc3c1)C(=O)N(C1CCC(=O)NC1=O)C2=O (centres unmarked) [Compound 11, 5-amino-2-(2,6-dioxopiperidin-3-yl)-1H-benzo[de]isoquinoline-1,3(2H)-dione] | potent binders of CRBN | 11.4 µM | 3.2 µM | inactive | – | – | – | – | – | –
O=C1CCC(N2C(=O)c3cccc4cc(O)cc(c34)C2=O)C(=O)N1 (centres unmarked) [Compound 10, 2-(2,6-dioxopiperidin-3-yl)-5-hydroxy-1H-benzo[de]isoquinoline-1,3(2H)-dione] | potent binders of CRBN | 3.5 µM | 0.98 µM | inactive | – | – | – | – | – | –
O=C1CCC(N2C(=O)c3cccc4cccc(c34)C2=O)C(=O)N1 (centres unmarked) [Compound 9, 2-(2,6-dioxopiperidin-3-yl)-1H-benzo[de]isoquinoline-1,3(2H)-dione] | potent binders of CRBN | 2.6 µM | 0.7 µM | inactive | ~21.5 µM | – | – | – | – | –
Cc1sc2c(c1C)C(c1ccc(Cl)cc1)=N[C@@H](CC(=O)NCCCCCCCCNC(=O)COc1cc3c4c(cccc4c1)C(=O)N(C1CCC(=O)NC1=O)C3=O)c1nnc(C)n1-2 (stereo partly drawn) [Compound 2, 2-((S)-4-(4-chlorophenyl)-2,3,9-trimethyl-6H-thieno[3,2-f][1,2,4]triazolo [4,3-a][1,4]diazepin-6-yl)-N-(8-(2-(2-(2,6-dioxopiperidin-3-yl)-1,3-dioxo-2,3-dihydro-1H-benzo[de]isoquinolin-5-yloxy)acetamido)octyl)acetamide] | – | – | – | – | – | active | active | active | downregulation of bromodomain proteins BRD2, 3 and 4 | did not induce degradation
COC(=O)C[C@@H]1N=C(c2ccc(Cl)cc2)c2c(sc(C(=O)NCCCCCOc3cc4c5c(cccc5c3)C(=O)N(C3CCC(=O)NC3=O)C4=O)c2C)-n2c(C)nnc21 (stereo partly drawn) [Compound 1, methyl 2-((6S)-4-(4-chlorophenyl)-2-((5-((2-(2,6-dioxopiperidin-3-yl)-1,3-dioxo-2,3-dihydro-1H-benzo[de]isoquinolin-5-yl)oxy)pentyl)carbamoyl)-3,9-dimethyl-6H-thieno[3,2-f][1,2,4]triazolo[4,3-a][1,4]diazepin-6-yl)acetate] | – | – | – | – | – | inactive | active | active | downregulation of bromodomain proteins BRD4 | did not induce degradation
